Results as given in patent US6416642B1, “Method and apparatus for continuous liquid flow in microscale channels using pressure injection, wicking, and electrokinetic injection” (Caliper Technologies Corp., priority 1999, dated 2002).

System: purinergic, P2Y receptor
Experiment: Calcium flux assay in continuous-flow microfluidic device (Fluo-3 fluorescence)
Assay type: cell-based
Settings: THP-1 cells loaded with Fluo-3; UTP 0-3 μM; FIG. 13 upper trace
Experimental: Using a continuous flow format in planar chips using a wick to generate constant pressure driven flow, cells were mixed with an agonist and down-stream fluorescence detectors were used to monitor indicator cells using Fluo-3 (Molecular Probes Inc.) calcium sensitive fluorescent dye as a probe for receptor activation of calcium fluxes. THP-1 cells were loaded with Fluo-3 by incubation with a 4 μM concentration of the Fluo-3 AM (acetoxymethyl ester) in Hank's Balanced Salt Solution(HBSS) containing 20 mM HEPES, pH 7.0, and 1 mg/ml bovine serum albumin. After a 40 minute incubation at 37° C., Syto-6, a fluorescent DNA stain, was added to 2.5 μM, and the cells were incubated for an additional 10 minutes at room temperature. The cells were then washed free of excess dye by pelleting at 300×g for 5 minutes and resuspending and repelleting. The cells were resuspended in Cell Buffer (HBSS containing 20 mM HEPES, pH 7.0, 1 mg/ml BSA and 10% Optiprep). […]
By taking the ratio of the two fluorescent dyes, it is possible to normalize the calcium flux response in the THP-1 cells since the DNA staining intensity is a constant in diploid, resting cells, and thereby quantitate the increase in calcium concentration.

For `O=c1ccn([C@@H]2O[C@H](COP(=O)(O)OP(=O)(O)OP(=O)(O)O)[C@@H](O)[C@H]2O)c(=O)[nH]1` [UTP], the “fluorescence of the calcium sensitive dye (intracellular free calcium)” value was “increases with UTP treatment in a dose dependent manner”.
